Assay results reported in the supplement of paper PMC8617591.

Assays:
[1] = tested on: Mycobacterium tuberculosis Erdman (autoluminescent); experiment: total FIC50 (Loewe) at 50% inhibition, three-drug combination (log2); higher = more antagonistic
Procedure: (§1)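 DiaMOND equipotent three-drug combination dose responses (10 doses, 1.5- or 2-fold spacing, centred on IC90) against autoluminescent M. tuberculosis Erdman in 8 in vitro models. Read-out is OD600, or luminescence for the intracellular and dormancy models, normalised to untreated wells. Hill-fit Einf, AUC25 and GRinf are potency metrics; FIC50 and FIC90 are total Loewe fractional inhibitory concentrations as log2 (negative = synergy).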

[2] = tested on: Mycobacterium tuberculosis Erdman (autoluminescent); experiment: total FIC90 (Loewe) at 90% inhibition, three-drug combination (log2); higher = more antagonistic
Procedure: as §1

[3] = tested on: Mycobacterium tuberculosis Erdman (autoluminescent); experiment: Einf, fitted maximum growth inhibition of three-drug combination (fraction); higher = stronger maximal inhibition
Procedure: as §1

[4] = tested on: Mycobacterium tuberculosis Erdman (autoluminescent); experiment: AUC25, normalised area under dose response up to IC25 (three-drug combination) (fraction (0-1)); higher = more potent at low dose
Procedure: as §1

[5] = tested on: Mycobacterium tuberculosis Erdman (autoluminescent); experiment: GRinf, maximum normalised growth rate inhibition (three-drug combination) (unitless (-1 to 1)); higher = less effect (negative = killing)
Procedure: as §1

NNC(=O)c1ccncc1 [isoniazid] + O=[N+]([O-])c1cn2c(n1)OC[C@@H](OCc1ccc(OC(F)(F)F)cc1)C2 [pretomanid] + CO[C@H]1/C=C/O[C@@]2(C)Oc3c(C)c(O)c4c(O)c(c(/C=N/N5CCN(C6CCCC6)CC5)c(O)c4c3C2=O)NC(=O)/C(C)=C\C=C\[C@H](C)[C@H](O)[C@@H](C)[C@@H](O)[C@@H](C)[C@H](OC(C)=O)[C@@H]1C [rifapentine]
Details	AUC25, [4]	Einf, [3]	GRinf, [5]	total FIC50, [1]	total FIC90, [2]
in vitro model: acidic pH 5.7, time point: constant (~7 days, model-specific)	0.0727	0.917	-0.193	4.53	–
in vitro model: acidic pH 5.7, time point: terminal (~4-5 doublings, model-specific)	0.0598	0.992	-0.24	4.23	4.33
in vitro model: intracellular J774, time point: constant = terminal	–	0.999	-0.647	–	0.264

Details	AUC25, [4]	Einf, [3]	GRinf, [5]	total FIC50, [1]	total FIC90, [2]
in vitro model: butyrate, time point: constant (~7 days, model-specific)	0.0925	0.927	-0.00998	2.86	1.02
in vitro model: butyrate, time point: terminal (~4-5 doublings, model-specific)	0.0727	0.966	0.00856	2.77	2.95
in vitro model: cholesterol 0.05 mM, time point: constant (~7 days, model-specific)	0.0995	0.687	-0.151	1.97	–
in vitro model: cholesterol 0.05 mM, time point: terminal (~4-5 doublings, model-specific)	0.0863	0.914	-0.223	2.05	0.57
in vitro model: cholesterol-high 0.2 mM, time point: constant (~7 days, model-specific)	0.0548	0.808	-0.0225	0.663	–
in vitro model: cholesterol-high 0.2 mM, time point: terminal (~4-5 doublings, model-specific)	0.0663	0.994	-0.46	0.773	0.83
in vitro model: dormancy (butyrate + nitrate, low O2), time point: constant (~7 days, model-specific)	0.0593	0.871	0.27	2.68	2.64
in vitro model: dormancy (butyrate + nitrate, low O2), time point: terminal (~4-5 doublings, model-specific)	0.0428	0.978	-0.11	2.7	2.66
in vitro model: standard 7H9 glycerol, time point: constant = terminal	0.0426	0.884	0.179	4.92	–
in vitro model: valerate, time point: constant (~7 days, model-specific)	0.102	0.894	-0.014	2.74	–
in vitro model: valerate, time point: terminal (~4-5 doublings, model-specific)	0.0549	0.938	-0.167	3.29	2.95

NNC(=O)c1ccncc1 [isoniazid] + O=[N+]([O-])c1cn2c(n1)OC[C@@H](OCc1ccc(OC(F)(F)F)cc1)C2 [pretomanid] + CO[C@H]1/C=C/O[C@@]2(C)Oc3c(C)c(O)c4c(O)c(c(/C=N/N5CCN(C)CC5)c(O)c4c3C2=O)NC(=O)/C(C)=C\C=C\[C@H](C)[C@H](O)[C@@H](C)[C@@H](O)[C@@H](C)[C@H](OC(C)=O)[C@@H]1C [rifampicin]
Details	AUC25, [4]	Einf, [3]	GRinf, [5]	total FIC50, [1]	total FIC90, [2]
in vitro model: acidic pH 5.7, time point: constant (~7 days, model-specific)	0.0775	0.859	-0.11	3.95	–
in vitro model: acidic pH 5.7, time point: terminal (~4-5 doublings, model-specific)	0.0694	0.984	-0.197	3.6	3.63
in vitro model: intracellular J774, time point: constant = terminal	–	0.984	-0.312	–	-0.077

Details	AUC25, [4]	Einf, [3]	GRinf, [5]	total FIC50, [1]	total FIC90, [2]
in vitro model: butyrate, time point: constant (~7 days, model-specific)	0.0916	0.923	0.00511	2.61	0.589
in vitro model: butyrate, time point: terminal (~4-5 doublings, model-specific)	0.0722	0.963	0.0279	2.48	2.45
in vitro model: cholesterol 0.05 mM, time point: constant (~7 days, model-specific)	0.0953	0.655	-0.0786	1.31	–
in vitro model: cholesterol 0.05 mM, time point: terminal (~4-5 doublings, model-specific)	0.0868	0.899	-0.194	1.53	0.957
in vitro model: cholesterol-high 0.2 mM, time point: constant (~7 days, model-specific)	0.0449	0.872	-0.204	0.405	–
in vitro model: cholesterol-high 0.2 mM, time point: terminal (~4-5 doublings, model-specific)	0.0391	0.977	-0.604	0.794	0.324
in vitro model: dormancy (butyrate + nitrate, low O2), time point: constant (~7 days, model-specific)	0.066	0.857	0.266	2.35	2.04
in vitro model: dormancy (butyrate + nitrate, low O2), time point: terminal (~4-5 doublings, model-specific)	0.0408	0.974	-0.0694	2.21	2.12
in vitro model: standard 7H9 glycerol, time point: constant = terminal	0.0661	0.893	0.151	5.01	3.36
in vitro model: valerate, time point: constant (~7 days, model-specific)	0.0615	0.863	0.000666	3.28	–
in vitro model: valerate, time point: terminal (~4-5 doublings, model-specific)	0.0349	0.939	0.0355	3.03	1.97

NNC(=O)c1ccncc1 [isoniazid] + O=[N+]([O-])c1cn2c(n1)OC[C@@H](OCc1ccc(OC(F)(F)F)cc1)C2 [pretomanid] + NC(=O)c1cnccn1 [pyrazinamide]
Details	AUC25, [4]	Einf, [3]	GRinf, [5]	total FIC50, [1]	total FIC90, [2]
in vitro model: acidic pH 5.7, time point: constant (~7 days, model-specific)	0.0986	0.815	-0.16	-0.198	–
in vitro model: acidic pH 5.7, time point: terminal (~4-5 doublings, model-specific)	0.0871	0.976	-0.481	-0.0964	-0.184
in vitro model: intracellular J774, time point: constant = terminal	–	1	-0.492	–	0.732

Details	AUC25, [4]	Einf, [3]	GRinf, [5]	total FIC50, [1]	total FIC90, [2]
in vitro model: butyrate, time point: constant (~7 days, model-specific)	0.0971	0.946	-0.0723	0.158	0.768
in vitro model: butyrate, time point: terminal (~4-5 doublings, model-specific)	0.0657	0.972	-0.0263	0.227	0.423
in vitro model: cholesterol 0.05 mM, time point: constant (~7 days, model-specific)	0.106	0.696	-0.21	–	–
in vitro model: cholesterol 0.05 mM, time point: terminal (~4-5 doublings, model-specific)	0.0922	0.924	-0.353	5.94	–
in vitro model: cholesterol-high 0.2 mM, time point: constant (~7 days, model-specific)	0.0717	0.874	-0.172	0.524	–
in vitro model: cholesterol-high 0.2 mM, time point: terminal (~4-5 doublings, model-specific)	0.0681	1	-0.653	0.832	0.548
in vitro model: dormancy (butyrate + nitrate, low O2), time point: constant (~7 days, model-specific)	0.0747	0.882	0.238	-0.215	-0.286
in vitro model: dormancy (butyrate + nitrate, low O2), time point: terminal (~4-5 doublings, model-specific)	0.0455	0.984	-0.172	-0.137	-0.122
in vitro model: standard 7H9 glycerol, time point: constant = terminal	0.0648	0.923	0.0829	0.311	–
in vitro model: valerate, time point: constant (~7 days, model-specific)	0.115	0.888	-0.0645	-0.24	–
in vitro model: valerate, time point: terminal (~4-5 doublings, model-specific)	0.0719	0.922	0.077	0.0468	0.0214
